“And” between values parts separate entries of the source, which are not always exact repeats. Equal values may be shown once.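 Step 1: Grow cells in 96-well plates. Step 2: Expose to compound for 48 hours at 5 concentrations. Step 3: Interpolate endpoints linearly; if unreached, use highest concentration. GI50 = concentration required for 50% inhibition of growth. TGI marks complete inhibition of growth.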
Key:
Test in all cases: inhibition of tumour cell growth, NCI panel, 48 h
HOP-62 NSCLC = system: HOP-62 NSCLC
OVCAR-5 ovarian = system: OVCAR-5 ovarian
K-562 leukemia = system: K-562 leukemia
IGROV1 ovarian = system: IGROV1 ovarian
XF 498 CNS = system: XF 498 CNS
OVCAR-3 ovarian = system: OVCAR-3 ovarian
SK-OV-3 ovarian = system: SK-OV-3 ovarian
OVCAR-8 ovarian = system: OVCAR-8 ovarian
UACC-257 melanoma = system: UACC-257 melanoma
A549 NSCLC = system: A549 NSCLC
SK-MEL-2 melanoma = system: SK-MEL-2 melanoma
OVCAR-4 ovarian = system: OVCAR-4 ovarian
RXF 393 renal = system: RXF 393 renal
EKVX NSCLC = system: EKVX NSCLC
NCI-H460 lung = system: NCI-H460 lung
HOP-92 NSCLC = system: HOP-92 NSCLC
UACC-62 melanoma = system: UACC-62 melanoma
SN12C renal = system: SN12C renal
DLD-1 colon = system: DLD-1 colon
DMS 114 small cell lung = system: DMS 114 small cell lung
SF-295 CNS = system: SF-295 CNS
SNB-19 CNS = system: SNB-19 CNS
HT29 colon = system: HT29 colon
NCI-H522 lung = system: NCI-H522 lung
786-0 renal = system: 786-0 renal
U251 CNS = system: U251 CNS
SW-620 colon = system: SW-620 colon
MALME-3M melanoma = system: MALME-3M melanoma
A498 renal = system: A498 renal
SNB-78 CNS = system: SNB-78 CNS
SR leukemia = system: SR leukemia
SK-MEL-28 melanoma = system: SK-MEL-28 melanoma
HCC-2998 colon = system: HCC-2998 colon
KM12 colon = system: KM12 colon
LXFL 529 NSCLC = system: LXFL 529 NSCLC
SNB-75 CNS = system: SNB-75 CNS
MOLT-4 leukemia = system: MOLT-4 leukemia
HL-60(TB) leukemia = system: HL-60(TB) leukemia
NCI-H23 lung = system: NCI-H23 lung
ACHN renal = system: ACHN renal
HOP-18 NSCLC = system: HOP-18 NSCLC
SF-539 CNS = system: SF-539 CNS
HCT-116 colon = system: HCT-116 colon
NCI-H226 lung = system: NCI-H226 lung
KM20L2 colon = system: KM20L2 colon
TK-10 renal = system: TK-10 renal
LOX IMVI melanoma = system: LOX IMVI melanoma
DMS 273 small cell lung = system: DMS 273 small cell lung
CAKI-1 renal = system: CAKI-1 renal
COLO 205 colon = system: COLO 205 colon
RXF-631 renal = system: RXF-631 renal
RPMI-8226 leukemia = system: RPMI-8226 leukemia
HCT-15 colon = system: HCT-15 colon
SF-268 CNS = system: SF-268 CNS

COc1cc(CN[C@H]2CCc3cc(OC)c(OC)c(OC)c3-c3ccc(SC)c(=O)cc32)cc(OC)c1
GI50 (HOP-62 NSCLC): 81.4 nM
TGI (HOP-62 NSCLC): > 100000 nM
GI50 (OVCAR-5 ovarian): > 100000 nM
TGI (OVCAR-5 ovarian): > 100000 nM
TGI (K-562 leukemia): 10400 nM
GI50 (IGROV1 ovarian): 69 nM
TGI (IGROV1 ovarian): > 100000 nM
TGI (XF 498 CNS): 977 nM
GI50 (OVCAR-3 ovarian): 14.5 nM
TGI (OVCAR-3 ovarian): 127 nM and 44.4 nM
GI50 (SK-OV-3 ovarian): 17.1 nM
GI50 (OVCAR-8 ovarian): 40 nM
TGI (OVCAR-8 ovarian): 31800 nM
GI50 (UACC-257 melanoma): 103 nM
TGI (UACC-257 melanoma): > 100000 nM
TGI (A549 NSCLC): > 100000 nM
GI50 (SK-MEL-2 melanoma): 18.4 nM
TGI (SK-MEL-2 melanoma): 474 nM
TGI (OVCAR-4 ovarian): > 100000 nM
TGI (RXF 393 renal): 37.2 nM
GI50 (EKVX NSCLC): 28.7 nM
TGI (EKVX NSCLC): > 100000 nM
GI50 (NCI-H460 lung): 31 nM
GI50 (HOP-92 NSCLC): 207 nM
TGI (HOP-92 NSCLC): 68700 nM
TGI (UACC-62 melanoma): 60.5 nM
GI50 (SN12C renal): 62.3 nM
TGI (SN12C renal): > 100000 nM
GI50 (DLD-1 colon): 23.2 nM
TGI (DLD-1 colon): > 100000 nM
GI50 (DMS 114 small cell lung): 16.6 nM
TGI (DMS 114 small cell lung): 50.5 nM and 61.3 nM
GI50 (SF-295 CNS): 18.7 nM
TGI (SNB-19 CNS): > 100000 nM
GI50 (HT29 colon): < 10 nM
TGI (HT29 colon): 62.7 nM and 25.1 nM
GI50 (NCI-H522 lung): 21.2 nM
TGI (NCI-H522 lung): 67.7 nM and 52 nM
GI50 (786-0 renal): 30.7 nM
TGI (786-0 renal): 30800 nM
GI50 (U251 CNS): 24.7 nM
TGI (U251 CNS): 87.3 nM and 63.5 nM
GI50 (SW-620 colon): < 10 nM
TGI (SW-620 colon): > 100000 nM
GI50 (MALME-3M melanoma): < 10 nM
TGI (MALME-3M melanoma): > 100000 nM
TGI (A498 renal): 167 nM
GI50 (SNB-78 CNS): < 10 nM
TGI (SNB-78 CNS): > 100000 nM
TGI (SR leukemia): 19400 nM
GI50 (SK-MEL-28 melanoma): < 10 nM
TGI (SK-MEL-28 melanoma): > 100000 nM
GI50 (HCC-2998 colon): 20.4 nM
TGI (HCC-2998 colon): 108 nM and 74.8 nM
GI50 (KM12 colon): < 10 nM
TGI (KM12 colon): 482 nM and 137 nM
GI50 (LXFL 529 NSCLC): 21.4 nM
TGI (LXFL 529 NSCLC): > 100000 nM
TGI (SNB-75 CNS): 64.1 nM
GI50 (MOLT-4 leukemia): 47.6 nM
TGI (MOLT-4 leukemia): 85500 nM
GI50 (HL-60(TB) leukemia): 24 nM
TGI (HL-60(TB) leukemia): > 100000 nM
GI50 (NCI-H23 lung): 22.8 nM
TGI (NCI-H23 lung): 78.6 nM and 492 nM
GI50 (ACHN renal): 66.2 nM
TGI (ACHN renal): > 100000 nM
GI50 (HOP-18 NSCLC): > 100000 nM
TGI (HOP-18 NSCLC): > 100000 nM
GI50 (SF-539 CNS): 17.3 nM
TGI (SF-539 CNS): 45.5 nM and 42.4 nM
GI50 (HCT-116 colon): < 10 nM
TGI (HCT-116 colon): 174 nM and 127 nM
GI50 (NCI-H226 lung): 23.1 nM
TGI (NCI-H226 lung): 95 nM and 91.9 nM
GI50 (KM20L2 colon): 13 nM
TGI (KM20L2 colon): 42.5 nM and 30.7 nM
GI50 (TK-10 renal): 41.2 nM
TGI (TK-10 renal): 77100 nM
GI50 (LOX IMVI melanoma): 17.3 nM
GI50 (DMS 273 small cell lung): < 10 nM
TGI (DMS 273 small cell lung): 140 nM
GI50 (CAKI-1 renal): 28.2 nM
TGI (CAKI-1 renal): > 100000 nM
GI50 (COLO 205 colon): 14.5 nM
TGI (COLO 205 colon): 105 nM and 81.6 nM
TGI (RXF-631 renal): 358 nM
TGI (RPMI-8226 leukemia): 24200 nM
TGI (HCT-15 colon): 239 nM
GI50 (SF-268 CNS): 24.8 nM

From PubChem BioAssay (NCI)
